Assay results reported in publication PMC9490060, “Synthesis and evaluation of anticancer activity of quillaic acid derivatives: A cell cycle arrest and apoptosis inducer through NF-κB and MAPK pathways” (Frontiers in Chemistry, 2022).

What was measured:
[1] = tested on: BEL7402 (human hepatocellular carcinoma cell line); assay: MTT anti-proliferative assay, BEL7402; type: cell-based; conditions: means ± SD, n = 3; for IC50: Homo sapiens, Bel-7402, 48 h incubation
From the text: (§1) The anti-proliferative activities against five human cancer cell lines, including HCT116 (human colorectal cancer cell line), MCF-7 (human breast cancer cell line), SW620 (human colorectal cancer cell line), BEL7402 (human hepatocellular carcinoma cell line), and HepG2 (human hepatocellular carcinoma cell line) were established for all the target compounds using the MTT assay.
(§2) The propidium iodide (PI) and Annexin V-FITC apoptosis detection kit were purchased from Invitrogen (Eugene, OR, United States). 3-(4,5-Dimethylthiazol-2-yl)-2,5-diphenyl-2H-tetrazolium bromide (MTT) was purchased from Sigma-Aldrich Co. (St. Louis, MO, United States). All human cell lines were used in this study, colorectal cancer cell HCT116, colorectal cancer cell SW620, breast cancer cell MCF-7, liver hepatocellular carcinoma cell BEL7402, liver hepatocellular carcinoma HepG2 and normal liver cell L02 were initially purchased from American Type Culture Collection (ATCC, Manassas, VA, United States). RPMI-1640 media, Dulbecco’s modified Eagle’s medium (DMEM), and foetal bovine serum (FBS) were provided from Gibco Company (Grand Island, NY, United States). Cell line MCF-7 and HepG2 were cultivated in DMEM containing 10% (v/v) heat-inactivated FBS, 100 units/ml penicillin and […] streptomycin (Grand Island, NY, United States). Cell lines HCT116, BEL7402, SW620, and L02 were cultivated in RPMI 1640 medium containing 10% (v/v) heat-inactivated FBS, 100 units/ml penicillin, and […] streptomycin. The cells were incubated at 37°C under a 5% CO2 and 90% relative humidity (RH) atmosphere.
(§3) Stock solutions were prepared by diluting target compounds in DMSO at concentrations (1.25, 2.5, 5, and 10 mM). The stock solution was then diluted (1.25, 2.5, 5, and 10 μM) with culture medium, and the concentration of DMSO was controlled not to exceed 0.1%.
(§4) Place the cells in a 96-well plate at an appropriate density to ensure exponential growth (1 × 10^4–1.2×10^4 cells per well) throughout the experiment, and then allow the cells to adhere for 24 h. The cells were then treated with continuous concentrations of each compound (1.25, 2.5, 5, and 10 μM) for 48 h. After 48 h of incubation, 15 μl of MTT solution was added to each well, and the final concentration was 2 mg/ml. Then incubate for another 4 h. After incubation, remove the MTT solution and add […] of DMSO to each well for staining. Shake vigorously for 10 min at room temperature to ensure complete dissolution. The optical density (OD) was read on a microplate reader (ELx 800, BioTek, Highland Park, Winooski, VT, United States) with a wavelength of 492 nm, and then the data was analyzed.

[2] = tested on: SW620 (human colorectal cancer cell line); assay: MTT anti-proliferative assay, SW620; type: cell-based; conditions: means ± SD, n = 3; for IC50: Homo sapiens, SW-620, 48 h incubation
From the text: as §1, §2, §3, §4

[3] = tested on: MCF-7 (human breast cancer cell line); assay: MTT anti-proliferative assay, MCF-7; type: cell-based; conditions: means ± SD, n = 3; for IC50: Homo sapiens, MCF7, 48 h incubation
From the text: as §1, §2, §3, §4

[4] = tested on: L02 (human normal liver cells); assay: Cytotoxicity against normal cell line L02; type: cell-based
From the text: The lack of selectivity between normal and cancer cells is one of the main limitations of antitumor drugs ([Dy and Adjei, 2013]). Therefore, we evaluated the cytotoxicity of compounds B2, and E in normal cell lines L02 (human normal liver cells) to determine the selectivity index (ratio of cytotoxicity in L02 cells compared to that in cancer cells). […] Therefore, this compound was chosen for further biological studies.
as §2, §3, §4

[5] = tested on: HepG2 (human hepatocellular carcinoma cell line); assay: MTT anti-proliferative assay, HepG2; type: cell-based; conditions: means ± SD, n = 3; for IC50: Homo sapiens, HepG2, 48 h incubation
From the text: as §1, §2, §3, §4

[6] = tested on: HCT116 (human colorectal cancer cell line); assay: MTT anti-proliferative assay, HCT116; type: cell-based; conditions: means ± SD, n = 3; for IC50: Homo sapiens, HCT-116, 48 h incubation
From the text: as §1, §2, §3, §4

IC50 [1] | melting point | IC50 [2] | IC50 [3] | IC50 [5] | IC50 [6] | IC50 values BEL7402 ([1]; 48 h incubation) | IC50 values SW620 ([2]; 48 h incubation) | IC50 values MCF-7 ([3]; 48 h incubation) | IC50 values HepG2 ([5]; 48 h incubation) | IC50 values HCT116 ([6]; 48 h incubation) | Compound | IC50 ([4]; Homo sapiens, normal cell line L02) | Selectivity index BEL7402 ([4]; IC50 on normal cells (L02)/IC50 on tumour cells (BEL7402)) | Selectivity index HCT116 ([4]; IC50 on normal cells (L02)/IC50 on tumour cells (HCT116)) | Selectivity index SW620 ([4]; IC50 on normal cells (L02)/IC50 on tumour cells (SW620))
2.84 ± 0.66 µM | 122 to 124 °C | 7.75 ± 1.43 µM | 3.99 ± 1.28 µM | 4.59 ± 1.73 µM | 3.12 ± 0.87 µM | – | – | – | – | – | CC1(C)CC[C@]2(C(=O)OCc3nnc(-c4ccc(F)cc4)o3)[C@H](O)C[C@]3(C)C(=CC[C@@H]4[C@@]5(C)CC[C@H](O)[C@@](C)(C=O)[C@@H]5CC[C@]43C)[C@@H]2C1 [Compound B2, (5-(4-fluorophenyl)-1,3,4-oxadiazol-2-yl)methyl (4aR,5R,6aS,6bR,8aR,9S,10S,12aR,12bR,14bS)-9-formyl-5,10-dihydroxy-2,2,6a,6b,9,12a-hexamethyl-1,3,4,5,6,6a,6b,7,8,8a,9,10,11,12,12a,12b,13,14b-octadecahydropicene-4a (2H)-carboxylate] | > 10 µM | > 3.52 | > 3.20 | > 1.29
> 10 µM | 187 to 189 °C | > 10 µM | > 10 µM | > 10 µM | > 10 µM | – | – | – | – | – | CC1(C)CC[C@]2(C(=O)OCCn3ncn(-c4ccc(Cl)c(Cl)c4)c3=O)[C@H](O)C[C@]3(C)C(=CC[C@@H]4[C@@]5(C)CC[C@H](O)[C@@](C)(C=O)[C@@H]5CC[C@]43C)[C@@H]2C1 [Compound C4, 2-(4-(3,4-dichlorophenyl)-5-oxo-4,5-dihydro-1H-1,2,4-triazol-1-yl)ethyl (4aR,5R,6aS,6bR,8aR,9S,10S,12aR,12bR,14bS)-9-formyl-5,10-dihydroxy-2,2,6a,6b,9,12a-hexamethyl-1,3,4,5,6,6a,6b,7,8,8a,9,10,11,12,12a,12b,13,14b-octadecahydropicene-4a (2H)-carboxylate] | – | – | – | –
> 10 µM | 186 to 188 °C | 7.25 ± 1.72 µM | > 10 µM | > 10 µM | 3.21 ± 1.07 µM | – | – | – | – | – | COc1ccc(-n2cnn(CCOC(=O)[C@]34CCC(C)(C)C[C@H]3C3=CC[C@@H]5[C@@]6(C)CC[C@H](O)[C@@](C)(C=O)[C@@H]6CC[C@@]5(C)[C@]3(C)C[C@H]4O)c2=O)cc1 [Compound C5, 2-(4-(4-methoxyphenyl)-5-oxo-4,5-dihydro-1H-1,2,4-triazol-1-yl)ethyl (4aR,5R,6aS,6bR,8aR,9S,10S,12aR,12bR,14bS)-9-formyl-5,10-dihydroxy-2,2,6a,6b,9,12a-hexamethyl-1,3,4,5,6,6a,6b,7,8,8a,9,10,11,12,12a,12b,13,14b-octadecahydropicene-4a (2H)-carboxylate] | – | – | – | –
> 10 µM | 176 to 178 °C | > 10 µM | > 10 µM | > 10 µM | > 10 µM | no strong activity | no strong activity | no strong activity | no strong activity | no strong activity | CC1(C)CC[C@]2(C(=O)OCc3cc(-c4ccccc4)no3)[C@H](O)C[C@]3(C)C(=CC[C@@H]4[C@@]5(C)CC[C@H](O)[C@@](C)(C=O)[C@@H]5CC[C@]43C)[C@@H]2C1 [D, (3-phenylisoxazol-5-yl)methyl (4aR,5R,6aS,6bR,8aR,9S,10S,12aR,12bR,14bS)-9-formyl-5,10-dihydroxy-2,2,6a,6b,9,12a-hexamethyl-1,3,4,5,6,6a,6b,7,8,8a,9,10,11,12,12a,12b,13,14b-octadecahydropicene-4a (2H)-carboxylate] | – | – | – | –
